From patent US11730720B2, “ALK5 inhibitors” (THERAVANCE BIOPHARMA R&D IP, LLC, priority 2018, dated 2023)

Experiments:
[1] = target: T1, recombinant human ALK5 (TGF-βR1) protein (Homo sapiens, UniProt P36897); experiment: Biochemical ALK5 (TGF-βR1) assay to measure pKi (LANCE Ultra ULight kinase assay); details: apparent pKi, converted from pIC50 using the Cheng-Prusoff equation
T1 construct: purchased Life Technologies PR9075A
T1 sequence (P36897 34-503): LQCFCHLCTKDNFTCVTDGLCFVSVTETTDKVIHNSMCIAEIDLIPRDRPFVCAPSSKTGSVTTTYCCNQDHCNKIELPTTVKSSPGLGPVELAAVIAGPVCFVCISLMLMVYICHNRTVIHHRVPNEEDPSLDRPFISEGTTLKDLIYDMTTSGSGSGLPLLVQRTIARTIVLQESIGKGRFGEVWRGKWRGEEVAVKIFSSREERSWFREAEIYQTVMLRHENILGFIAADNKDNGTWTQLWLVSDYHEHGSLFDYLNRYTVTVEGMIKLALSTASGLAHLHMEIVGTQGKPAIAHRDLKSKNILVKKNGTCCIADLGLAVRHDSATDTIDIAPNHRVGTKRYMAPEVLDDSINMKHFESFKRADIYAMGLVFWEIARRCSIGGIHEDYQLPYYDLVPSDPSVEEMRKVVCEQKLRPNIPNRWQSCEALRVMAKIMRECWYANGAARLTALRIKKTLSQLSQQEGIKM
Procedure, shortened: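 TR-FRET kinase format: compound dose range 10 μM–25 pM equilibrated 60 min with human ALK5 and ULight-labelled topoisomerase 2α peptide in HEPES/MgCl2 buffer pH 7.5 with DTT. Reaction started with ATP (125 μM stock, 5× final), 60 min at 37° C, stopped with EDTA/Eu-anti-phospho antibody; pKi derived from pIC50 via Cheng-Prusoff.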

[2] = system: TGF-β-stimulated SMAD3 phosphorylation in BEAS-2B cells; experiment: Cellular ALK5 potency assay, inhibition of TGF-β stimulated pSMAD3 formation in BEAS-2B cells; type: cell-based; details: Homo sapiens, inhibition of TGF-β (10 ng/mL) stimulated pSMAD3 formation, 1 hour compound incubation, read-out: BEAS2B pIC50 (converted)
Procedure, shortened: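 Phospho-SMAD3 was quantified by AlphaLISA in lysates of human lung epithelial BEAS-2B cells. Compound was added 1 h (37 °C, HEPES/BSA-supplemented HBSS) before a 30 min challenge with 10 ng/mL TGF-β. Values are pIC50 relative to stimulated cells without compound.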

Row | SMILES | Ki [1] [nM] | IC50 [2] [nM]
1 | Fc1cc(F)c(-c2n[nH]cc2-c2ccc3ncc(-c4[nH]nc5c4CCNC5)cc3n2)cc1Cl [Compound 6-53, 2-[3-(5-chloro-2,4-difluoro-phenyl)-1H-pyrazol-4-yl]-7-(4,5,6,7-tetrahydro-2H-pyrazolo[3,4-c]pyridin-3-yl)-1,5-naphthyridine] | 0.0398 to 0.316 | 25.1 to 158
2 | CNCC1CN(c2cnc3ccc(-c4c[nH]nc4-c4cc(Cl)c(F)cc4F)nc3c2)C1 [Compound 6-29, 1-[1-[6-[3-(5-chloro-2,4-difluoro-phenyl)-1H-pyrazol-4-yl]-1,5-naphthyridin-3-yl]azetidin-3-yl]-N-methyl-methanamine] | ≤ 0.0316 | ≤ 20
3 | CN1CCN(C2CCN(c3cnc4ccc(-c5c[nH]nc5-c5ccccc5F)nc4c3)CC2)CC1 [Compound 11-1, 2-(3-(2-fluorophenyl)-1H-pyrazol-4-yl)-7-(4-(4-methylpiperazin-1-yl)piperidin-1-yl)-1,5-naphthyridine] | 0.398 to 3.16 | 25.1 to 158
4 | COC(=O)N1CCc2nnc(-c3cnc4ccc(-c5c[nH]nc5-c5cc(Cl)c(F)cc5F)nc4c3)cc2C1 [Compound 6-61, methyl 3-[6-[3-(5-chloro-2,4-difluoro-phenyl)-1H-pyrazol-4-yl]-1,5-naphthyridin-3-yl]-7,8-dihydro-5H-pyrido[4,3-c]pyridazine-6-carboxylate] | 0.0398 to 0.316 | 25.1 to 158
5 | CNC1CCN(c2cnc3ccc(-c4c[nH]nc4-c4cccc(COC)c4)nc3c2)CC1 [Compound 14-1, 1-(6-(3-(3-(methoxymethyl)phenyl)-1H-pyrazol-4-yl)-1,5-naphthyridin-3-yl)-N-methylpiperidin-4-amine] | 3.98 to 31.6 | 25.1 to 158
6 | CN1CCN(C2CCN(c3cnc4ccc(-c5nn[nH]c5-c5cc(Cl)ccc5F)cc4c3)CC2)CC1 [Compound 18-6, 6-[5-(5-chloro-2-fluoro-phenyl)-1H-triazol-4-yl]-3-[4-(4-methylpiperazin-1-yl)-1-piperidyl]quinoline] | 0.398 to 3.16 | 25.1 to 158
7 | CN1CCC(N(C)c2cnc3ccc(-c4c[nH]nc4-c4cc(Cl)c(F)cc4F)nc3c2)CC1 [Compound 6-16, 6-[3-(5-chloro-2,4-difluoro-phenyl)-1H-pyrazol-4-yl]-N-methyl-N-(1-methyl-4-piperidyl)-1,5-naphthyridin-3-amine] | 0.398 to 3.16 | 25.1 to 158
8 | Fc1ccc(-c2[nH]cnc2-c2ccc3ncc(NCCN4CCNCC4)cc3n2)cc1F [Compound 9-1, 6-(5-(3,4-difluorophenyl)-1H-imidazol-4-yl)-N-(2-(piperazin-1-yl)ethyl)-1,5-naphthyridin-3-amine] | 0.398 to 3.16 | 200 to 1260
9 | Fc1cc(F)c(-c2n[nH]cc2-c2ccc3ncc(-c4nnn5c4CNCC5)cc3n2)cc1Cl [Compound 6-57, 2-[3-(5-chloro-2,4-difluoro-phenyl)-1H-pyrazol-4-yl]-7-(4,5,6,7-tetrahydrotriazolo[1,5-a]pyrazin-3-yl)-1,5-naphthyridine] | 0.398 to 3.16 | 25.1 to 158
10 | CN(CC1CNC1)c1cnc2ccc(-c3c[nH]nc3-c3cc(Cl)c(F)cc3F)nc2c1 [Compound 6-32, N-(azetidin-3-ylmethyl)-6-[3-(5-chloro-2,4-difluoro-phenyl)-1H-pyrazol-4-yl]-N-methyl-1,5-naphthyridin-3-amine] | 0.0398 to 0.316 | 25.1 to 158
11 | COCc1cccc(-c2n[nH]cc2-c2ccc3ncc(NCCN4CCN(C(C)C)CC4)cc3n2)c1 [Compound 14-17, N-[2-(4-isopropylpiperazin-1-yl)ethyl]-6-[3-[3-(methoxymethyl)phenyl]-1H-pyrazol-4-yl]-1,5-naphthyridin-3-amine] | 3.98 to 31.6 | 200 to 1260
12 | CN1CCN(C2CCN(c3cnc4ccc(-c5c[nH]nc5-c5cc(Cl)c(F)cc5F)nc4c3)CC2)CC1 [Compound 6-17, 2-[3-(5-chloro-2,4-difluoro-phenyl)-1H-pyrazol-4-yl]-7-[4-(4-methylpiperazin-1-yl)-1-piperidyl]-1,5-naphthyridine] | 0.0398 to 0.316 | 25.1 to 158
13 | Fc1ccc(-c2n[nH]cc2-c2ccc3ncc(-c4cnn(CC5CNC5)c4)cc3n2)cc1F [Compound 8-15, 7-[1-(azetidin-3-ylmethyl)pyrazol-4-yl]-2-[3-(3,4-difluorophenyl)-1H-pyrazol-4-yl]-1,5-naphthyridine] | ≤ 0.0316 | 25.1 to 158

The next lines start with results.

Row | Ki [1] [nM] | SMILES | IC50 [2] [nM]
14 | 3.98 to 31.6 | CC(C)N1CCN(CCNc2cnc3ccc(-c4c[nH]nc4-c4ccc(F)c(F)c4)nc3c2)CC1 [Compound 8-1, 6-(3-(3,4-difluorophenyl)-1H-pyrazol-4-yl)-N-(2-(4-isopropylpiperazin-1-yl)ethyl)-1,5-naphthyridin-3-amine] | 25.1 to 158
15 | 0.398 to 3.16 | Fc1ccc(Cl)cc1-c1[nH]cnc1-c1ccc2ncc(NCC3CCCCN3)cc2n1 (stereo not drawn) [Compound 2-31, 6-[5-(5-chloro-2-fluoro-phenyl)-1H-imidazol-4-yl]-N-(2-piperidylmethyl)-1,5-naphthyridin-3-amine] | 25.1 to 158
16 | 0.398 to 3.16 | CNC(=O)[C@@H]1CN(c2cnc3ccc(-c4c[nH]nc4-c4cc(Cl)c(F)cc4F)nc3c2)CCN1 [Compound 6-26, (2S)-4-[6-[3-(5-chloro-2,4-difluoro-phenyl)-1H-pyrazol-4-yl]-1,5-naphthyridin-3-yl]-N-methyl-piperazine-2-carboxamide] | 25.1 to 158
17 | 0.398 to 3.16 | COC(=O)[C@H]1CN(c2cnc3ccc(-c4c[nH]nc4-c4cc(Cl)ccc4F)nc3c2)CCN1 [Compound 1-62, methyl (2R)-4-[6-[3-(5-chloro-2-fluoro-phenyl)-1H-pyrazol-4-yl]-1,5-naphthyridin-3-yl]piperazine-2-carboxylate] | 25.1 to 158
18 | 0.0398 to 0.316 | Fc1ccc(Cl)cc1-c1n[nH]cc1-c1ccc2ncc(-c3cnc4n3CCNC4)cc2n1 [Compound 1-107, 2-[3-(5-chloro-2-fluoro-phenyl)-1H-pyrazol-4-yl]-7-(5,6,7,8-tetrahydroimidazo[1,2-a]pyrazin-3-yl)-1,5-naphthyridine] | 25.1 to 158
19 | 0.0398 to 0.316 | Fc1ccc(Cl)cc1-c1n[nH]cc1-c1ccc2ncc(-c3cnn(CC4CNC4)c3)cc2n1 [Compound 1-88, 7-[1-(azetidin-3-ylmethyl)pyrazol-4-yl]-2-[3-(5-chloro-2-fluoro-phenyl)-1H-pyrazol-4-yl]-1,5-naphthyridine] | 25.1 to 158
20 | 0.0398 to 0.316 | Fc1ccc(Cl)cc1-c1n[nH]cc1-c1ccc2ncc(NCC3CNC3)cc2n1 [Compound 1-28, N-(azetidin-3-ylmethyl)-6-[3-(5-chloro-2-fluoro-phenyl)-1H-pyrazol-4-yl]-1,5-naphthyridin-3-amine] | 25.1 to 158
21 | 0.0398 to 0.316 | CC(C)N1CCN(CCNc2cnc3ccc(-c4c[nH]nc4-c4cc(Cl)ccc4F)nc3c2)CC1 [Compound 1-2] | ≤ 20
22 | 0.398 to 3.16 | Fc1cc(F)c(-c2n[nH]cc2-c2ccc3ncc(NCC4CCCCN4)cc3n2)cc1Cl (stereo not drawn) [Compound 6-8, 6-[3-(5-chloro-2,4-difluoro-phenyl)-1H-pyrazol-4-yl]-N-(2-piperidylmethyl)-1,5-naphthyridin-3-amine] | 25.1 to 158
23 | 0.0398 to 0.316 | CN(CCN1CCNCC1)c1cnc2ccc(-c3c[nH]nc3-c3cc(Cl)ccc3F)nc2c1 [Compound 1-53, 6-[3-(5-chloro-2-fluoro-phenyl)-1H-pyrazol-4-yl]-N-methyl-N-(2-piperazin-1-ylethyl)-1,5-naphthyridin-3-amine] | 25.1 to 158
24 | 0.398 to 3.16 | COC(=O)[C@@H]1CN(c2cnc3ccc(-c4c[nH]nc4-c4cc(Cl)c(F)cc4F)nc3c2)CCN1 [Compound 6-28, methyl (2S)-4-[6-[3-(5-chloro-2,4-difluoro-phenyl)-1H-pyrazol-4-yl]-1,5-naphthyridin-3-yl]piperazine-2-carboxylate] | 25.1 to 158
25 | 0.398 to 3.16 | Fc1cc(F)c(-c2n[nH]cc2-c2ccc3ncc(NC[C@@H]4CCCCN4)cc3n2)cc1Cl [Compound 6-12, 6-[3-(5-chloro-2,4-difluoro-phenyl)-1H-pyrazol-4-yl]-N-[[(2S)-2-piperidyl]methyl]-1,5-naphthyridin-3-amine] | 25.1 to 158
26 | 0.0398 to 0.316 | CC(C)N1CCN(CCNc2cnc3ccc(-c4c[nH]nc4-c4cccc(Cl)c4)nc3c2)CC1 [Compound 28-1, 6-(3-(3-chlorophenyl)-1H-pyrazol-4-yl)-N-(2-(4-isopropylpiperazin-1-yl)ethyl)-1,5-naphthyridin-3-amine] | 25.1 to 158
27 | 0.0398 to 0.316 | O=C(O)C1CN(CCNc2cnc3ccc(-c4c[nH]nc4-c4cc(Cl)ccc4F)nc3c2)CCN1 (stereo not drawn) [Compound 1-133, 4-[2-[[6-[3-(5-chloro-2-fluoro-phenyl)-1H-pyrazol-4-yl]-1,5-naphthyridin-3-yl]amino]ethyl]piperazine-2-carboxylic acid] | 200 to 1260
